Laboratory results as given in US8143227B2, “Azithromycin for treatment of skin disorders” (priority 2008, dated 2012).
In brackets after ≈: the same amount, converted by molar mass.

What was measured:
[1] = Gastrointestinal side effects monitoring; type: in vivo, human; details: 40, 80, or 120 mg/day; 42 days treatment plus 4 weeks after cessation
Source text: The subjects of Example 1 were monitored for the presence of gastrointestinal adverse effects during the six weeks (42 days) of treatment with the daily low-dose azithromycin of the invention and for an additional 4 weeks (total of 70 days) following cessation of treatment.

P. acnes = details: concentration that inhibits 90% of growth of the organism; Neu 1991; cited from earlier work
inflammatory acne = details: 250 mg three times per week, cited from earlier work
acne [2] = details: Elewski, cited from earlier work
acne [3] = details: 500 mg three times per week; Kapadia 2004; cited from earlier work
moderate to severe acne = experiment: Efficacy against acne (lesion counts), 40/80/120 mg per day; type: in vivo, human
Procedure: The subjects of Example 1 were evaluated for efficacy of each dosage (40 mg, 80 mg, or 120 mg per day) in treating moderate to severe acne following treatment for 6 weeks. Before starting the treatment protocol, the number of facial non-inflammatory lesions (open and closed comedones), inflammatory lesions (papules, pustules, and nodules), and nodules were counted. The numbers of these lesions were counted again at day 21 of treatment and at day 42. The % decrease from Day 0 was calculated as the mean of the differences for each of the parameters (non-inflammatory lesions, inflammatory lesion and nodules) for each individual subject on Day 21 and Day 42. The results, including average lesion counts and efficacy assessment by percent decrease in lesion counts, are shown for the 40 mg, 80 mg, and 120 mg group, respectively, in Tables 4, 5, and 6.

Streptococcus pyogenes = details: Neu 1991; cited from earlier work
[4] = Additional low dosage regimens, adverse effects; type: in vivo, human
Procedure: The numbers of facial inflammatory lesions: papules, pustules, and nodules, and non-inflammatory lesions: open and closed comedones, were counted at the beginning of treatment and again after 3 weeks of treatment and after 6 weeks of treatment. Additionally, nodules were counted independently at each of these visits. Additionally, during the treatment study, each subject reported the occurrence of any adverse effects. The results of this study for the 25 mg/day regimen are shown in Table 7 and for the 80 mg every other day regiment in Table 8. In these tables, the numbers represent the mean number of lesions in the four subjects of each group. The % decrease from Day 0 was calculated as the mean of the differences for each of the parameters (inflammatory lesions, non-inflammatory lesion and nodules) for each individual subject on Day 21 and Day 42.

Staphylococcus aureus = details: Neu 1991; relative to P. acnes; cited from earlier work
[5] = 40 mg/day for 6 weeks, Day 0 (before treatment)
[6] = 80 mg/day for 6 weeks, Day 0 (before treatment)
[7] = 120 mg/day for 6 weeks, Day 0 (before treatment)

In the case of `CC[C@H]1OC(=O)[C@H](C)[C@@H](O[C@H]2C[C@@](C)(OC)[C@@H](O)[C@H](C)O2)[C@H](C)[C@@H](O[C@@H]2O[C@H](C)C[C@H](N(C)C)[C@H]2O)[C@](C)(O)C[C@@H](C)CN(C)[C@H](C)[C@@H](O)[C@]1(C)O` [Azithromycin, 9-deoxo-9a-aza-9a-methyl-9a-homoerythromycin A], the gastrointestinal side effects [1] is given as “no gastrointestinal side effects were reported”, the “MIC against P. acnes” value (P. acnes) is given as 0.15 µg/mL (≈ 0.2 µM) and the “cases of gastrointestinal discomfort” value (inflammatory acne; 21 subjects) is given as 3 cases. The cases of vaginitis (inflammatory acne; 21 subjects) was “one”, the “subjects who experienced side effects” value (inflammatory acne; 21 subjects) was 19% and the “efficacy in treating lesions of inflammatory acne” value (inflammatory acne; Fernandez-Obregon 2000) was “as effective as other antibiotics tested”. The improvement in acne (acne [2]; 500 mg day 1, then 250 mg/day for 4 days, from 1st and 15th of each month, 3 months) was “all patients treated with this azithromycin regimen showed improvement”, the “subjects who experienced gastrointestinal side effects” value (acne [2]; same regimen) was “only one of twenty subjects” and the “subjects with adverse events” value (acne [3]) was 11%. The treatment of acne (acne [3]) was “successful treatment”, the “Inflammatory lesions (average count)” value (moderate to severe acne; [5]) was 30.1 and the “Nodules (average count)” value (moderate to severe acne; [5]) was 5.2. For the same compound, the “Non-inflammatory lesions (average count)” value (moderate to severe acne; [5]) was 36.5, the “Inflammatory lesions % Decrease from Day 0” value (moderate to severe acne; 40 mg/day for 6 weeks, Day 21) was 51.5% and the “Inflammatory lesions (average count)” value (moderate to severe acne; 40 mg/day for 6 weeks, Day 21) was 14.4. For the same compound, the “Nodules % Decrease from Day 0” value (moderate to severe acne; 40 mg/day for 6 weeks, Day 21) was 62.4%, the “Nodules (average count)” value (moderate to severe acne; 40 mg/day for 6 weeks, Day 21) was 2.2 and the “Non-inflammatory lesions % Decrease from Day 0” value (moderate to severe acne; 40 mg/day for 6 weeks, Day 21) was 30.4%. For the same compound, the “Non-inflammatory lesions (average count)” value (moderate to severe acne; 40 mg/day for 6 weeks, Day 21) was 23.9, the “Inflammatory lesions % Decrease from Day 0” value (moderate to severe acne; 40 mg/day for 6 weeks, Day 42) was 54.2% and the “Inflammatory lesions (average count)” value (moderate to severe acne; 40 mg/day for 6 weeks, Day 42) was 13.8. The “Nodules % Decrease from Day 0” value (moderate to severe acne; 40 mg/day for 6 weeks, Day 42) was 82.2%, the “Nodules (average count)” value (moderate to severe acne; 40 mg/day for 6 weeks, Day 42) was 1.2 and the “Non-inflammatory lesions % Decrease from Day 0” value (moderate to severe acne; 40 mg/day for 6 weeks, Day 42) was 38.9%. For the same compound, the “Non-inflammatory lesions (average count)” value (moderate to severe acne; 40 mg/day for 6 weeks, Day 42) was 21.5, the “Inflammatory lesions (average count)” value (moderate to severe acne; [6]) was 37.0 and the “Nodules (average count)” value (moderate to severe acne; [6]) was 5.5. The “Non-inflammatory lesions (average count)” value (moderate to severe acne; [6]) was 38.7, the “Inflammatory lesions % Decrease from Day 0” value (moderate to severe acne; 80 mg/day for 6 weeks, Day 21) was 44.7% and the “Inflammatory lesions (average count)” value (moderate to severe acne; 80 mg/day for 6 weeks, Day 21) was 19.8. For the same compound, the “Nodules % Decrease from Day 0” value (moderate to severe acne; 80 mg/day for 6 weeks, Day 21) was 72.8%, the “Nodules (average count)” value (moderate to severe acne; 80 mg/day for 6 weeks, Day 21) was 1.5 and the “Non-inflammatory lesions % Decrease from Day 0” value (moderate to severe acne; 80 mg/day for 6 weeks, Day 21) was 34.7%. The “Non-inflammatory lesions (average count)” value (moderate to severe acne; 80 mg/day for 6 weeks, Day 21) was 24.9, the “Inflammatory lesions % Decrease from Day 0” value (moderate to severe acne; 80 mg/day for 6 weeks, Day 42) was 53.7% and the “Inflammatory lesions (average count)” value (moderate to severe acne; 80 mg/day for 6 weeks, Day 42) was 17.0. The “Nodules % Decrease from Day 0” value (moderate to severe acne; 80 mg/day for 6 weeks, Day 42) was 74.2%, the “Nodules (average count)” value (moderate to severe acne; 80 mg/day for 6 weeks, Day 42) was 1.3 and the “Non-inflammatory lesions % Decrease from Day 0” value (moderate to severe acne; 80 mg/day for 6 weeks, Day 42) was 24.7%. The “Non-inflammatory lesions (average count)” value (moderate to severe acne; 80 mg/day for 6 weeks, Day 42) was 29.3, the “Inflammatory lesions (average count)” value (moderate to severe acne; [7]) was 31.6 and the “Nodules (average count)” value (moderate to severe acne; [7]) was 4.7. The “Non-inflammatory lesions (average count)” value (moderate to severe acne; [7]) was 37.7, the “Inflammatory lesions % Decrease from Day 0” value (moderate to severe acne; 120 mg/day for 6 weeks, Day 21) was 51.9% and the “Inflammatory lesions (average count)” value (moderate to severe acne; 120 mg/day for 6 weeks, Day 21) was 15.6. The “Nodules % Decrease from Day 0” value (moderate to severe acne; 120 mg/day for 6 weeks, Day 21) was 78.6%, the “Nodules (average count)” value (moderate to severe acne; 120 mg/day for 6 weeks, Day 21) was 1.0 and the “Non-inflammatory lesions % Decrease from Day 0” value (moderate to severe acne; 120 mg/day for 6 weeks, Day 21) was 28.1%. The “Non-inflammatory lesions (average count)” value (moderate to severe acne; 120 mg/day for 6 weeks, Day 21) was 27.8, the “Inflammatory lesions % Decrease from Day 0” value (moderate to severe acne; 120 mg/day for 6 weeks, Day 42) was 52.9% and the “Inflammatory lesions (average count)” value (moderate to severe acne; 120 mg/day for 6 weeks, Day 42) was 14.8. For the same compound, the “Nodules % Decrease from Day 0” value (moderate to severe acne; 120 mg/day for 6 weeks, Day 42) was 73.7%, the “Nodules (average count)” value (moderate to severe acne; 120 mg/day for 6 weeks, Day 42) was 1.1 and the “Non-inflammatory lesions % Decrease from Day 0” value (moderate to severe acne; 120 mg/day for 6 weeks, Day 42) was 38.9%. For the same compound, the “Non-inflammatory lesions (average count)” value (moderate to severe acne; 120 mg/day for 6 weeks, Day 42) was 23.2, the “number of inflammatory acne lesions” value (moderate to severe acne; any of 40, 80, or 120 mg per day, at 21 days and at 42 days) was “marked decrease” and the “number of facial nodules” value (moderate to severe acne; any of 40, 80, or 120 mg, at both 21 and 42 days) was “marked decrease”. The “response of non-inflammatory acne lesions” value (moderate to severe acne; daily treatment at each dosage level tested, 40, 80, or 120 mg) was “responded favorably”, the “resolution of existing nodules” value (moderate to severe acne; examination at 21 days after initiation of treatment, daily administration) was “Complete resolution of existing nodules in several subjects” and the “MIC90 against Streptococcus pyogenes” value (Streptococcus pyogenes) was 0.12 µg/mL (≈ 0.16 µM). For the same compound, the adverse effects reported ([4]; 25 mg per day for 6 weeks, migraine headache on day 21, deemed not related) was “only one adverse effect was reported”, the “typical antibiotic side effects (abdominal cramping, nausea, vomiting, diarrhea or vaginitis)” value ([4]; 25 mg per day or 80 mg every other day for 6 weeks) was “no typical antibiotic side effects reported” and the adverse effects reported ([4]; 80 mg every other day for 6 weeks) was “no adverse effects were reported”. For the same compound, the “MIC against Staphylococcus aureus” value (Staphylococcus aureus) was “higher than that for P. acnes”.
